The target in assay [1] is T1, human recombinant prostanoid EP1 receptor (Homo sapiens, UniProt P34995).
T1 construct: expressed in transfected cells
T1 sequence (P34995 1-402): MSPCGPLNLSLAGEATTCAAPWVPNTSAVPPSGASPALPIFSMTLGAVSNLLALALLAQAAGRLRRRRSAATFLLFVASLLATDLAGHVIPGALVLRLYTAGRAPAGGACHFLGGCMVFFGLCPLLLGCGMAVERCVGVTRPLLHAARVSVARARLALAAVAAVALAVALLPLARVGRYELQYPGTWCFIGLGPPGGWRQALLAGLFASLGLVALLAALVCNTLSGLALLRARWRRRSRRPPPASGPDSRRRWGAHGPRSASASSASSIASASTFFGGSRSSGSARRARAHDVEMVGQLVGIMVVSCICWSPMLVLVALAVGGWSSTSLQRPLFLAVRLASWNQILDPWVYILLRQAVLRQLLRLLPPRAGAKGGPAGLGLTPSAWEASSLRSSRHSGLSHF
The assay can be described thus: FLIPR Ca2+ signaling PG antagonist assay, EP1 receptor stable cell line. In kind it is cell-based. Particulars: HEK-293 EBNA cells, standard agonist PGE2. The method, then:
(§1) The above compounds were tested for PG antagonist activity as follows using human recombinant prostanoid receptor (DP1, EP1-4, FP, IP and TP) stable cell lines:
(§2) In order to measure the response of Gs and Gi coupled prostanoid receptors as a Ca^2+ signal, chimeric G protein cDNAs were used. Stable cell lines over-expressing human prostanoid DP1, EP1-4, FP, IP, and TP receptors were established as follows:
(§3) Briefly, human prostanoid DP1, EP2, and EP4 receptor cDNAs were co-transfected with chimeric Gqs cDNA containing a haemagglutanin (HA) epitope; human prostanoid EP3 receptors were co-transfected with chimeric Gqi-HA; human EP1, FP, IP, and TP receptor cDNAs were expressed with no exogenous G-proteins. Gqs and Gqi chimeric cDNAs (Molecular Devices, Sunnyvale, Calif., U.S.A.), as well as cDNAs of prostanoid receptors, were cloned into a pCEP4 vector with a hygromycin B selection marker. Transfection into HEK-293 EBNA (Epstein-Barr virus nuclear antigen) cells was achieved by the FuGENE 6 transfection Reagent (Roche Applied Science, Indianapolis, Ind., USA). Stable transfectants were selected according to hygromycin resistance. Because Gqs and Gqi contained an HA epitope, G-protein expression was detected by Western blotting analysis using anti-mouse HA monoclonal antibody and horseradish peroxidase (HRP)-conjugated secondary antibody, while functional expression of prostanoid receptors was detected by FLIPR screening (Matias et al., 2004). These stable cell lines were validated using previously published antagonists at 10 μM against serial dilutions of standard agonists by FLIPR functional assays for Ca^2+ Signaling (as described below).
(§4) Ca^2+ signaling studies were performed using a FLIPR TETRA system (Molecular Devices, Sunnyvale, Calif., USA) in the 384-format. This is a high-throughput instrument for cell-based assays to monitor Ca^2+ signaling associated with GPCRs and ion channels. Cells were seeded at a density of 5×10^4 cells/well in BioCoat poly-D-lysine coated, black wall, clear bottom 384-well plates (BD Biosciences, Franklin lakes, NJ, USA) and allowed to attach overnight in an incubator at 37° C. The cells were then washed twice with HBSS-HEPES buffer (Hanks' balanced salt solution without bicarbonate and phenol red, 20 mM HEPES, pH 7.4) using an ELx405 Select CW Microplate Washer (BioTek, Winooski, Vt., USA). After 60 min of dye-loading in the dark using the Ca^2+-sensitive dye Fluo-4AM (Invitrogen, Carlsbad, Calif., USA), at a final concentration of 2×10^−6M, the plates were washed 4 times with HBSS-HEPES buffer to remove excess dye and leaving 50 μl of buffer in each well. The plates were then placed in the FLIPR TETRA instrument and allowed to equilibrate at 37° C. Compounds were added in a 25 μl volume to each well to give final concentrations of 0.1 μM, 0.3 μM, 1 μM, 3 μM, 10 μM, and 30 μM; or 0.067 μM, 0.1 μM, 0.2 μM, 0.3 μM, 0.67 μM, and 1 μM for cells over-expressing TP receptors. After 4.5 minutes, a 7-point serial dilution of the standard agonist for the corresponding receptor, in a 25 μl volume was injected at the final concentrations from 10^−11M to 10^−5M in 10-fold serial dilution increments for cells expressing human recombinant DP1, EP1, EP2, EP3, EP4, FP, and IP receptors. The dose range for the standard agonist for human recombinant TP receptors was from 10^−12M to 10^−6M. HBSS-HEPES buffer was used as the negative control for the standard agonists. Cells were excited with LED (light emitting diode) excitation at 470-495 nm and emission was measured through an emission filter at 515-575 nm. Assay plates were read for 3.5 minutes using the FLIPR^TETRA. The peak increase in fluorescence intensity was recorded for each well. On each plate, negative controls, dose response of positive controls, and co-treatments of antagonist-agonist for each dose were in triplicates. Standard agonists were as follows: DP=BW 245C, EP1-EP4=PGE2, FP=17-phenyl-PGF2α, IP=Cicaprost, and TP=U-46619. […]

Assay [2] concerns the target T2, human recombinant prostanoid EP3 receptor (Homo sapiens, UniProt P43115).
T2 construct: expressed in transfected cells; co-transfected with chimeric Gqi-HA
T2 sequence (P43115 1-390): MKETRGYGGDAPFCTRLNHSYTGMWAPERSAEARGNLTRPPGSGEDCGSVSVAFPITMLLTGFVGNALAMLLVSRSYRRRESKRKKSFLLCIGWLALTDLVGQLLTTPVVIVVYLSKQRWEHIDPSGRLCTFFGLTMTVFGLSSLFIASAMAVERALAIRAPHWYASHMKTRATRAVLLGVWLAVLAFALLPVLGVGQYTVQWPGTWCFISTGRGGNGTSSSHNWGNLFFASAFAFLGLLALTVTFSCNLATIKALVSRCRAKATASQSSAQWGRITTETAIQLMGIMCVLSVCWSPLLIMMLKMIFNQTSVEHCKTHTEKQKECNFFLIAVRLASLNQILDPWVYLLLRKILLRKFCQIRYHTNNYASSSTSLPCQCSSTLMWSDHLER
The assay can be described thus: FLIPR Ca2+ signaling PG antagonist assay, EP3 receptor stable cell line. In kind it is cell-based. Particulars: HEK-293 EBNA cells with chimeric Gqi, standard agonist PGE2. The method, then: as §1, §2, §3, §4

Where only a bound is given, the exact number is not on record here.

For the compound `Cc1cc(C(=O)O)nn1Cc1cc(Cl)ccc1OCC1CCCC1` [Example 1, 1-(5-CHLORO-2-CYCLOPENTYLMETHOXY-BENZYL)-5-METHYL-1H-PYRAZOLE-3-CARBOXYLIC ACID], the figures for the Kb in assay [1] and in assay [2] were 30 nM and at least 10 µM, respectively.
Taken in the same sequence, the figures for `Cc1cc(C(=O)O)nn1Cc1cc(Br)ccc1OCC1CCCC1` [Example 2, 1-(5-BROMO-2-CYCLOPENTYLMETHOXY-BENZYL)-5-METHYL-1H-PYRAZOLE-3-CARBOXYLIC ACID] were 10 nM and at least 10 µM.
On the same counts, the results for `Cc1cc(C(=O)O)nn1Cc1cc(C(F)(F)F)ccc1OCC1CCCC1` [Example 3, 1-(2-CYCLOPENTYLMETHOXY-5-TRIFLUOROMETHYL-BENZYL)-5-METHYL-1H-PYRAZOLE-3-CARBOXYLIC ACID] are 5 nM and at least 10 µM.
Turning to `COc1ccc(COc2ccc(Cl)cc2Cn2nc(C(=O)NS(=O)(=O)c3ccccc3)cc2C)cc1` [Example 4, N-{1-[5-CHLORO-2-(4-METHOXY-BENZYLOXY)-BENZYL]-5-METHYL-1H-PYRAZOLE-3-CARBONYL}-BENZENESULFONAMIDE], the Kb (in general, the equilibrium dissociation constant of an antagonist, usually derived from a functional assay) in assay [1] is 10 nM; in assay [2], 2.5 µM.
On the same counts, the results for `Cc1cc(C(=O)NS(=O)(=O)c2ccccc2)nn1Cc1cc(Cl)ccc1OCc1ccc(Cl)cc1` [Example 5, N-{1-[5-CHLORO-2-(4-CHLORO-BENZYLOXY)-BENZYL]-5-METHYL-1H-PYRAZOLE-3-CARBONYL}-BENZENESULFONAMIDE] are 10 nM and 1.5 µM.
Consider `CCC(CC)COc1ccc(Br)cc1Cn1nc(C(=O)O)cc1C` [Example 6, 1-[5-BROMO-2-(2-ETHYL-BUTOXY)-BENZYL]-5-METHYL-1H-PYRAZOLE-3-CARBOXYLIC ACID], for which the Kb in assay [1] was 10 nM; in assay [2], at least 10 µM.
Take `CCC(C)(CC)COc1ccc(Br)cc1Cn1nc(C(=O)O)cc1C` [Example 7, 1-[5-BROMO-2-(2-ETHYL-2-METHYL-BUTOXY)-BENZYL]-5-METHYL-1H-PYRAZOLE-3-CARBOXYLIC ACID]: the Kb in assay [1] was 19 nM; in assay [2], at least 10 µM.
On the same counts, the results for `Cc1cc(C(=O)O)nn1Cc1cc(Br)ccc1OCC1CCC1` [Example 8, 1-(5-BROMO-2-CYCLOBUTYLMETHOXY-BENZYL)-5-METHYL-1H-PYRAZOLE-3-CARBOXYLIC ACID] are 10 nM and 4.1 µM.
For `Cc1cc(C(=O)O)nn1Cc1cc(Br)ccc1OCC1(C(F)(F)F)CCC1` [Example 9, 1-[5-BROMO-2-(1-TRIFLUOROMETHYL-CYCLOBUTYLMETHOXY)-BENZYL]-5-METHYL-1H-PYRAZOLE-3-CARBOXYLIC ACID], the Kb was 16 nM in assay [1] and 2.6 µM in assay [2].

The record behind these values is patent US9522890B2, “Compounds acting at multiple prostaglandin receptors giving a general anti-inflammatory response” (Allergan, Inc., priority 2011, dated 2016).
